Here are results for 6 compounds from patent US20240158446A1, “CYCLIC COMPOUND HAVING SELECTIVE INHIBITORY ACTION ON KRAS OVER HRAS AND NRAS” (CHUGAI SEIYAKU KABUSHIKI KAISHA, priority 2021, published 2024).

In experiment [1] the target is GDP-bound NRAS wild-type protein (Homo sapiens, UniProt P01111). As to the kind of experiment: Binding to NRAS by surface plasmon resonance (SPR), Single Cycle Kinetics. The note with it: for NRAS/KRAS (ratio of KD value for NRAS to KD value for KRAS): SPR, GDP-bound NRAS wild-type protein vs GDP-bound KRAS wild-type protein.
Sequence of GDP-bound NRAS wild-type protein (P01111 whole entry): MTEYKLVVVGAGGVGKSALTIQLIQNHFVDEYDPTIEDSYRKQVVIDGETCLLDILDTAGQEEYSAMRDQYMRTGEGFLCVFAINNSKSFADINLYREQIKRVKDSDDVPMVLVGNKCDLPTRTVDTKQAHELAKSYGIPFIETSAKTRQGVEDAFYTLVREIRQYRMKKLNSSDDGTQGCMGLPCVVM
Experiment [2] addresses GDP-bound HRAS wild-type protein (Homo sapiens, UniProt P01112). The experiment is described as follows: Binding to HRAS by surface plasmon resonance (SPR), Single Cycle Kinetics. The note with it: for HRAS/KRAS (ratio of KD value for HRAS to KD value for KRAS): SPR, GDP-bound HRAS wild-type protein vs GDP-bound KRAS wild-type protein.

Sequence of GDP-bound HRAS wild-type protein (P01112 whole entry): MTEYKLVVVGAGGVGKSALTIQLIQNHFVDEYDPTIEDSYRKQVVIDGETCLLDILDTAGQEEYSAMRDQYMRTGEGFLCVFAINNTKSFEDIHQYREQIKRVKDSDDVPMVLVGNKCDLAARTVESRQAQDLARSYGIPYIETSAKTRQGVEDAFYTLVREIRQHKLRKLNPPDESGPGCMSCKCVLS

As to `CCO[C@@H]1C[C@H]2C(=O)NC3(CCC3)C(=O)N(C)[C@@H](C3CCCC3)C(=O)N(C)[C@H](C(=O)N(C)CC)CC(=O)N(C)[C@@H](CC3CCC3)C(=O)N[C@@H]([C@@H](C)CC)C(=O)N(C)CC(=O)N(C)[C@H]3C/C=C\CCN(C3=O)[C@@H](Cc3ccc(C(F)(F)F)cc3)C(=O)N(C)CC(=O)N[C@@H](CCc3ccc(Cl)c(Cl)c3)C(=O)N2C1` [PP2824], the “NRAS/KRAS (ratio of KD value with respect to GDP-bound NRAS wild-type protein to KD value with respect to KRAS)” value in experiment [1] (SPR KD ratio NRAS/KRAS, class symbols) was “A (a compound having 10 or more and less than 20 is denoted as A)”. Also, in experiment [2] (SPR KD ratio HRAS/KRAS, class symbols), the “HRAS/KRAS (ratio of KD value with respect to GDP-bound HRAS wild-type protein to KD value with respect to KRAS)” value is “A (a compound having 10 or more and less than 20 is denoted as A)”.
Take `CC[C@H](C)[C@@H]1NC(=O)[C@H](CC(C)C)N(C)C(=O)C[C@@H](C(=O)N(C)C)N(C)C(=O)[C@H](C2CCCC2)N(C)C(=O)C2(CC(C)(C)C2)NC(=O)[C@@H]2C[C@@H](C)CN2C(=O)[C@H](CCc2cc(F)c(C(F)(F)F)c(F)c2)NC(=O)CN(C)C(=O)[C@H](Cc2ccc(C)cc2)N2CC/C=C\C[C@@H](C2=O)N(C)C(=O)CN(C)C1=O` [PP2223]: in experiment [1], the “NRAS/KRAS (ratio of KD value for NRAS to KD value for KRAS)” value was “A (a compound having 10 or more and less than 20 is denoted as A)”. For the same compound, the “HRAS/KRAS (ratio of KD value for HRAS to KD value for KRAS)” value in experiment [2] was “A (a compound having 10 or more and less than 20 is denoted as A)”.
As to `CCC[C@H]1C(=O)N[C@@H](C2CCCC2)C(=O)N(C)CC(=O)N(C)[C@H]2C/C=C\CCN(C2=O)[C@@H](Cc2ccc(C)cc2)C(=O)N(C)CC(=O)N[C@@H](CCc2ccc(C(F)(F)F)c(OC)c2)C(=O)N2CC3(CC3)C[C@H]2C(=O)NC2(CC(C)(C)C2)C(=O)N(C)[C@@H](CC(C)(C)C)C(=O)N(C)[C@H](C(=O)N(C)C)CC(=O)N1C` [PP3010], in experiment [1], the “NRAS/KRAS (ratio of KD value for NRAS to KD value for KRAS)” value is “B (a compound having 3 or more and less than 10 is denoted as B)”. Besides, in experiment [2], the “HRAS/KRAS (ratio of KD value for HRAS to KD value for KRAS)” value is “B (a compound having 3 or more and less than 10 is denoted as B)”.
Consider `CCO[C@@H]1C[C@H]2C(=O)NC3(CCC3)C(=O)N(C)[C@@H](C3CCCC3)C(=O)N(C)[C@H](C)CC(=O)N(C)[C@@H](CC3CCCC3)C(=O)N[C@@H]([C@@H](C)CC)C(=O)N(C)CC(=O)N(C)[C@H]3C/C=C\CCN(C3=O)[C@@H](Cc3ccc(F)cc3)C(=O)N(C)CC(=O)N[C@@H](CCc3cc(F)c(C(F)(F)F)c(F)c3)C(=O)N2C1` [PP1492], for which the “NRAS/KRAS (ratio of KD value for NRAS to KD value for KRAS)” value in experiment [1] (KD ratio class) is “B (a compound having 3 or more and less than 10 is denoted as B)”. In addition, the “HRAS/KRAS (ratio of KD value for HRAS to KD value for KRAS)” value in experiment [2] (KD ratio class) is “B (a compound having 3 or more and less than 10 is denoted as B)”.
In the case of `CC[C@H](C)[C@@H]1NC(=O)[C@H](C2CCC2)N(C)C(=O)C[C@@H](C(=O)N(C)CC)N(C)C(=O)[C@H](C2CCCC2)N(C)C(=O)C2(CCC2)NC(=O)[C@@H]2C[C@H](C)CN2C(=O)[C@H](CCc2cc(F)c(C(F)(F)F)c(F)c2)NC(=O)CN(C)C(=O)[C@H](Cc2ccc(C(F)(F)F)cc2)N2CC/C=C\C[C@@H](C2=O)N(C)C(=O)CN(C)C1=O` [PP2082], the “NRAS/KRAS (ratio of KD value for NRAS to KD value for KRAS)” value in experiment [1] is on record as “AA (a compound having 20 or more is denoted as AA)”. Also, in experiment [2], the “HRAS/KRAS (ratio of KD value for HRAS to KD value for KRAS)” value was “A (a compound having 10 or more and less than 20 is denoted as A)”.
In the case of `CCC[C@H]1C(=O)N[C@@H](C2CCCC2)C(=O)N(C)CC(=O)N(C)[C@H]2C/C=C\CCN(C2=O)[C@@H](Cc2ccc(C)cc2)C(=O)N(C)CC(=O)N[C@@H](CCc2cc(F)c(C(F)(F)F)c(F)c2)C(=O)N2C[C@H](OCC)C[C@H]2C(=O)NC2(CC(C)(C)C2)C(=O)N(C)[C@@H](C2CCCC2)C(=O)N(C)[C@H](C(=O)N(C)C)CC(=O)N1C` [PP2988], the “NRAS/KRAS (ratio of KD value for NRAS to KD value for KRAS)” value in experiment [1] is “B (a compound having 3 or more and less than 10 is denoted as B)”. Further, in experiment [2], the “HRAS/KRAS (ratio of KD value for HRAS to KD value for KRAS)” value is “B (a compound having 3 or more and less than 10 is denoted as B)”.
